Some test systems named below: Staphylococcus aureus; Bacillus megaterium Bm11; Escherichia coli ML-35; Shigella sonnei DSM 5570; Escherichia coli K-12; Escherichia coli BL21AI.
What all share (test): ≥ marks a high value that may be exact or a test limit, other limits are often not marked, values filed in µg/mL are converted to µM
Test [1] has as its system Klebsiella pneumoniae ATCC 43816.
Test [2] deals with Staphylococcus aureus NCTC 10788.
For test [3], the system named is Pseudomonas aeruginosa ATCC 27853.
Test [4] concerns Staphylococcus aureus ATCC 12493.
Test [5] relates to Enterococcus faecalis NCTC 12697.
The subject of test [6] is Candida albicans NCYC 1467.
Test [7] deals with Escherichia coli NCTC 10418.
Test [8] deals with Pseudomonas aeruginosa NBRC 13275.
The subject of test [9] is Escherichia coli DH5alpha.
Test [10] has as its system Staphylococcus aureus NBRC 13276.
The test system of test [11] is Staphylococcus epidermidis NBRC 12298.
Test [12] concerns Staphylococcus aureus 710A.
The subject of test [13] is Salmonella enterica subsp. enterica serovar Typhimurium ATCC 14028.
Test [14] deals with Acinetobacter baumannii ATCC 19606.
Test [15] has as its system Salmonella enterica DSM 17058.
Test [16] deals with Staphylococcus aureus DSM 11729.
The test system of test [17] is Citrobacter freundii DSM 30029.
For test [18], the system named is Acinetobacter baumannii AL1851-ΔLpxA.
For test [19], the system named is Staphylococcus epidermidis DSM 28319.
In test [20] the test system is Escherichia coli DSM 1103.
Test [21] relates to Klebsiella pneumoniae DSM 789.
In test [22] the test system is Acinetobacter baumannii Al1852-ΔLpxD.
The subject of test [23] is Pseudomonas aeruginosa DSM 1117.
For test [24], the system named is Pseudomonas aeruginosa PA380.
The subject of test [25] is Pseudomonas aeruginosa PAO1.
Test [26] relates to Pseudomonas aeruginosa PA330.
Test [27] has as its system Pseudomonas aeruginosa PA214.
The test system of test [28] is Micrococcus luteus DSM 1790.

Molecules are shown by their SMILES. ≈ marks a conversion by molar mass, not a printed value.

For the molecule `CC(C)C[C@H](NC(=O)[C@H](C)N)C(=O)N[C@@H](Cc1c[nH]c2ccccc12)C(=O)N[C@@H](CCCCN)C(=O)N[C@@H](CCCCN)C(=O)N[C@@H](CC(C)C)C(=O)N[C@@H](CC(C)C)C(=O)N[C@@H](CCCCN)C(=O)N[C@@H](CCCCN)C(=O)N[C@@H](C)C(N)=O` [ALWKKLLKKA], the MIC is no less than 256 µM in test [1]; no less than 64 µM in test [2]; 32 µM (≈ 38.3 µg/mL) in test [3]; no less than 256 µM in test [4]; no less than 256 µM in test [5]; greater than 256 µM in the test on Staphylococcus aureus. Further, the MIC in test [6] was no less than 64 µM; in test [7], 8 µM (≈ 9.58 µg/mL).

For `CC[C@H](C)[C@H](NC(=O)CN)C(=O)NCC(=O)N[C@@H](CCCCN)C(=O)N[C@@H](Cc1ccccc1)C(=O)N[C@@H](CC(C)C)C(=O)N[C@@H](Cc1cnc[nH]1)C(=O)N[C@@H](CO)C(=O)N[C@@H](C)C(=O)N[C@@H](CCCCN)C(=O)N[C@@H](CCCCN)C(=O)N[C@@H](Cc1ccccc1)C(=O)NCC(=O)N[C@@H](CCCCN)C(=O)N[C@@H](C)C(=O)N[C@@H](Cc1ccccc1)C(=O)N[C@H](C(N)=O)C(C)C` [GIGKFLHSAKKFGKAFV], the MIC in [8] is 3.12 µM (≈ 5.73 µg/mL); in test [9], 3.12 µM (≈ 5.73 µg/mL); in test [10], no less than 50 µM; in [11], 12.5 µM (≈ 22.9 µg/mL).

`CC[C@H](C)[C@H](NC(=O)[C@H](CCCCN)NC(=O)[C@H](CCCCN)NC(=O)[C@H](CC(C)C)NC(=O)[C@H](CC(C)C)NC(=O)CN)C(=O)N[C@@H](C)C(=O)N[C@@H](CCCCN)C(=O)N[C@@H](CCCCN)C(=O)N[C@@H](C)C(=O)N[C@@H](CCCCN)C(=O)N[C@@H](CCCCN)C(=O)N[C@@H](C)C(=O)N[C@@H](CC(C)C)C(=O)N[C@@H](CCCCN)C(=O)N[C@@H](CCCCN)C(=O)N[C@@H](CC(C)C)C(=O)NCC(=O)N[C@@H](Cc1ccc(O)cc1)C(N)=O` [GLLKKIAKKAKKALKKLGY]: the MIC in [3] amounted to 1 µM (≈ 2.1 µg/mL); with Bacillus megaterium Bm11 it was 1 µM (≈ 2.1 µg/mL); in the test with Escherichia coli ML-35, 1 µM (≈ 2.1 µg/mL); in test [12], 4 µM (≈ 8.39 µg/mL); in [13], 2 µM (≈ 4.2 µg/mL).

Take `CC[C@H](C)[C@H](NC(=O)[C@H](CC(=O)O)NC(=O)[C@H](Cc1c[nH]c2ccccc12)NC(=O)[C@H](CCCCN)NC(=O)[C@@H]1CCCN1C(=O)[C@H](CC(C)C)NC(=O)[C@H](CCSC)NC(=O)[C@H](Cc1ccc(O)cc1)NC(=O)[C@H](CC(C)C)NC(=O)[C@H](CC(N)=O)NC(=O)[C@@H](NC(=O)CNC(=O)[C@H](CCCCN)NC(=O)[C@H](Cc1ccccc1)NC(=O)[C@H](Cc1ccccc1)NC(=O)[C@H](CCCCN)NC(=O)[C@H](Cc1ccccc1)NC(=O)[C@H](Cc1ccccc1)NC(=O)[C@H](CCCCN)NC(=O)[C@H](Cc1ccccc1)NC(=O)[C@H](Cc1ccccc1)NC(=O)[C@@H](N)CCCCN)[C@@H](C)O)C(=O)N1CCC[C@H]1C(N)=O` [KFFKFFKFFKGTNLYMLPKWDIP]: the MIC in test [14] is 0.25 µM (≈ 0.736 µg/mL); in test [15], 2 µM (≈ 5.89 µg/mL); in [16], no less than 32 µM; in test [17], 0.5 µM (≈ 1.47 µg/mL); in [18] it was 0.25 µM (≈ 0.736 µg/mL); in [19] it was 1 µM (≈ 2.94 µg/mL). Further, the MIC amounted to 0.5 µM (≈ 1.47 µg/mL) in test [20]; 0.25 µM (≈ 0.736 µg/mL) in [21]; 0.25 µM (≈ 0.736 µg/mL) in test [22]; 0.25 µM (≈ 0.736 µg/mL) in the test with Shigella sonnei DSM 5570; 1 µM (≈ 2.94 µg/mL) in test [23].

With `CC(C)C[C@H](NC(=O)[C@H](C)NC(=O)[C@H](CCCCN)NC(=O)[C@H](CCCCN)NC(=O)[C@H](CCCCN)NC(=O)[C@H](CCCCN)NC(=O)[C@@H](N)CCCCN)C(=O)N[C@@H](Cc1ccccc1)C(=O)N[C@@H](CC(C)C)C(=O)N[C@@H](CCCCN)C(=O)N[C@@H](CC(C)C)C(=O)N[C@@H](Cc1c[nH]c2ccccc12)C(=O)N[C@@H](C)C(=O)N[C@@H](C)C(=O)N[C@@H](Cc1ccccc1)C(=O)N[C@@H](CC(C)C)C(=O)N[C@@H](C)C(N)=O` [KKKKKALFLKLWAAFLA], the MIC in [24] was no less than 50 µM; in the test on Escherichia coli K-12, 3.1 µM (≈ 6.21 µg/mL); in test [25], 12.5 µM (≈ 25 µg/mL); in test [26], 12.5 µM (≈ 25 µg/mL); in [27], 6.3 µM (≈ 12.6 µg/mL).

For `CC[C@H](C)[C@H](NC(=O)[C@H](CCCN=C(N)N)NC(=O)[C@H](CCCN=C(N)N)NC(=O)[C@@H]1CCCN1C(=O)[C@@H]1CCCN1C(=O)[C@H](CCCCN)NC(=O)[C@@H]1CCCN1C(=O)[C@H](CCCN=C(N)N)NC(=O)[C@@H]1CCCN1C(=O)[C@H](CC(C)C)NC(=O)[C@H](Cc1ccc(O)cc1)NC(=O)[C@@H]1CCCN1C(=O)[C@@H]1CCCN1C(=O)[C@H](CCCCN)NC(=O)[C@H](CC(=O)O)NC(=O)[C@@H](N)C(C)C)C(=O)N[C@@H](Cc1ccc(O)cc1)C(=O)N[C@@H](CC(N)=O)C(=O)O` [VDKPPYLPRPKPPRRIYN], the MIC (with Escherichia coli BL21AI; in [28]) was 7.07 µM (≈ 15.6 µg/mL) throughout.
